# From patent publication US20070010484A1, “Method for treating or inhibiting the effects of injuries or diseases that result in neuronal degeneration and method for promoting neurogenesis” (YEDA RESEARCH AND DEVELOPMENT CO. LTD., priority 2003, published 2007)
# Assays:
# [1] = system: retinal ganglion cells (RGCs); assay: Experimental autoimmune uveitis (EAU), RGC survival; format: in vivo; conditions: R16-immunized Lewis rats, i.p. on days 3, 6, 9, 12 and 17; counted 3 weeks after immunization; mean±SD
# Experimental: Induction of experimental autoimmune uveitis. To induce experimental autoimmune uveitis (EAU), Lewis rats were immunized with R16 (30 μg), a peptide derived from an ocular antigen IRBP emulsified in CFA containing 2.5 mg/ml M. tuberculosis. A total volume of 100 μl was injected s.c. into each rat at the root of the tail. Rats were then divided into three groups. On days 3, 6, 9, 12 and 17 after immunization the rats in the first group were injected i.p. with CSPG-DS (15 μg/rat), and rats in the second group were injected i.p. with methylprednisolone (MP. 30 mg/kg; Solu-Medrol, 125 mg/ml, Pharmacia & Upjohn, Puurs, Belgium). Rats in third group were left untreated.
# NF-κB = assay: Western blot of NF-κB in T-cell nuclear extracts; format: cell-based, human; conditions: T cells activated by anti-CD3 Ab
# Experimental: Western blot analysis of T-cell nuclear extracts. Purified T cells (5×10^6) were preincubated for 2 h with different concentrations of CSPG-DS. The cells were then replated at the same CSPG-DS concentration on 24-well plates pre-coated for 24 h with anti-CD3 mAb. The T cells were lysed in 10 mM HEPES, 1.5 mM MgCl2, 1 mM dithiothreitol, 1 mM PMSF, and 0.5% Nonidet P-40 (buffer A). The lysates were incubated on ice for 10 min and centrifuged at 2000 rpm for 10 min at 4° C. The supernatants (cytoplasmic extracts) were transferred and the pellets (nuclei) were suspended in buffer containing 30 mM HEPES, 450 mM NaCl, 25% glycerol, 0.5 mM EDTA, 6 mM dithiothreitol, 12 mM MgCl2 1 mM PMSF, 10 μg/ml leupeptin, 10 μg/ml pepstatin, and 1% phosphatase inhibitor cocktail (buffer B), and the suspension was incubated on ice for 30 min. The lysates were cleared by centrifugation (30 min, 14×10^3 rpm, 4° C.), and the resulting supernatants were analyzed for protein content. Sample buffer was added, the mixture was boiled, and the samples containing equal amounts of proteins were separated on 10% SDS-PAGE gel and transferred to nitrocellulose membranes. […]
# IL-4 and IL-13 = assay: RT-PCR of IL-4 and IL-13 mRNA in activated T cells; format: cell-based, human; conditions: 2 h pretreatment, anti-CD3 activation 3 h; similar after 6 or 12 h
# Experimental: RNA purification, RT-PCR, and CDNA synthesis. After pretreatment with the indicated concentrations of CSPG-DS for 2 h, […], lysed with TRI reagent (MRC, Cincinnati, Ohio), and total cellular RNA was purified from lysates using the RNeasy kit (Qiagen, Hilden, Germany) according to the manufacturer's instructions. RNA was converted to cDNA using SuperScript II (Promega, Madison, Wis.), as recommended by the manufacturer. The expression of specific mRNAs was assayed by RT-PCR, using the messageScreen™ Human Th1/Th2 Cytokine Set 1 Multiplex PCR® kits (BioSource International, Camarillo, Calif.), according to the manufacturer's instructions.
# [2] = system: retinal ganglion cells (RGCs); assay: Chronically high intra-ocular pressure (laser-induced glaucoma) rat model, RGC survival; format: in vivo, Lewis rats; conditions: chronic IOP rats
# Source text: Induction of chronically high intra-ocular pressure: Blockage of aqueous outflow causes an increase in IOP, which results in RGC death (Schori et al., 2001 and Bakalash et al., 2002). […] The laser beam, which was directed at three of the four episcleral veins and at 270 degrees of the limbal plexus, was applied with a power of 1 watt for 0.2 s, producing a spot size of […] at the episcleral veins and […] at the limbal plexus. At a second laser session 1 week later, the same parameters were used except that the spot size was […] for all applications, this time the radiation was directed towards all four episcleral veins and 360 degrees of the limbal plexus (Schori et al., 2001).
# Anatomical assessment of retinal damage caused by the increase in IOP: The hydrophilic neurotracer dye dextran tetramethylrhodamine (Rhodamine Dextran) (Molecular Probes, Oreg., USA) was applied directly into the intra-orbital portion of the optic nerve. […] RGCs were counted under magnification of ×800 in a Zeiss fluorescent microscope. Four fields from each retina were counted, all with the same diameter (0.076 mm^2) and located at the same distance from the optic disc (Kipnis et al., 2001; and Yoles et al., 2001). […] RGCs were counted by an observer who was blinded to the identity of the retinas. […]
smiles,measurement,setting,value
"CC(=O)N[C@H]1C(O)O[C@H](COS(=O)(=O)O)[C@H](O)[C@@H]1O[C@@H]1OC(C(=O)O)=C[C@H](O)[C@H]1O (stereo partly drawn) [CSPG-DS, 2-acetoamido-2-deoxy-3-O-(β-D-gluco-4-enepyranosyluronic acid)-6-O-sulfo-D-galactose]",RGC loss relative to normal rats,[1],24±9%
same,NF-κB levels in nuclei,NF-κB,reduction
same,mRNA levels of Th2-associated cytokines IL-4 and IL-13,IL-4 and IL-13,not affected
same,viable RGCs per mm^2,"[2]; eye drops 20 μg/ml (5 x 50 μl), every other day between day 7 and day 14, counted at three weeks, n=6",1924±191 RGCs per mm^2
same,viable RGCs per mm^2,"[2]; intravenous, every other day between day 7 and day 14 after first laser session, n=5",2063±215 RGCs per mm^2
